Reference: ChEMBL document CHEMBL1152175, “Synthesis, tubulin assembly, and antiproliferative activity against MCF7 and NCI/ADR-RES cancer cells of 10-O-acetyl-5'-hydroxybutitaxel” (2008)

Key:
MCF7 = test: Cytotoxicity against human MCF7 cells; type: functional; settings: read-out: ED50 (the source's name)
NCI/ADR-RES = test: Cytotoxicity against human NCI/ADR-RES cells; type: functional; settings: read-out: ED50 (the source's name)
[1] = Inhibition of tubulin assembly

| Compound | EC50 (MCF7) | EC50 (NCI/ADR-RES) | ED50 [1] |
| --- | --- | --- | --- |
| CC(=O)O[C@H]1C(=O)[C@@]2(C)[C@H]([C@H](OC(=O)c3ccccc3)[C@]3(O)C[C@H](OC(=O)[C@H](O)[C@@H](NC(=O)OC(C)(C)C)C(C)(C)CO)C(C)=C1C3(C)C)[C@]1(OC(C)=O)CO[C@@H]1C[C@@H]2O | 560 nM | 12500 nM | 2200 nM |
| CC(=O)O[C@H]1C(=O)[C@@]2(C)[C@H]([C@H](OC(=O)c3ccccc3)[C@]3(O)C[C@H](OC(=O)[C@H](O)[C@@H](NC(=O)c4ccccc4)c4ccccc4)C(C)=C1C3(C)C)[C@]1(OC(C)=O)CO[C@@H]1C[C@@H]2O [PACLITAXEL] | 2.1 nM | 2000 nM | 1200 nM |
